For data set [1], the target named is T1, p53-MDM2 interaction (human MDM2 protein, amino acids 2-188) (Homo sapiens, UniProt Q00987).
T1 construct: human MDM2 protein (amino acids 2-188); made in house
The experiment in a line: p53-MDM2 Assay 1: TR-FRET inhibition of p53-MDM2 interaction. It is filed as binding. The conditions noted are these: 1.25 nM MDM2-biotinylated, 10 nM Cy5-p53 peptide. Here is the method:
(§1) Time Resolved Fluorescence Energy Transfer (TR-FRET) Assay
(§2) The inhibition of p53-MDM2 and p53-MDM4 interactions is measured by time resolved fluorescence energy transfer (TR-FRET). Fluorescence energy transfer (or Foerster resonance energy transfer) describes an energy transfer between donor and acceptor fluorescent molecules. For this assay, human MDM2 protein (amino acids 2-188) and human MDM4 protein (amino acids 2-185), tagged with a C-terminal biotin moiety, are used in combination with a Europium labeled streptavidin (Perkin Elmer, Inc., Waltham, Mass., USA) serving as the donor fluorophore. The p53 derived, Cy5 labeled peptide Cy5-TFSDLWKLL (p53 aa18-26) is the energy acceptor. Upon excitation of the donor molecule at 340 nm, binding interaction between MDM2 or MDM4 and the p53 peptide induces energy transfer and enhanced response at the acceptor emission wavelength at 665 nm. Disruption of the formation of the p53-MDM2 or p53-MDM4 complex due to an inhibitor molecule binding to the p53 binding site of MDM2 or MDM4 results in increased donor emission at 620 nm. The ratiometric FRET assay readout is calculated from the raw data of the two distinct fluorescence signals measured in time resolved mode (fluorescence 665 nm/fluorescence 620 nm×1000).
(§3) After addition of 1.25 nM MDM2-biotinylated or 2.5 nM MDM4-biotinylated (internal preparations, both MDM2 and MDM4 are biotinylated at the C-terminal of the peptide construct), and 0.625 nM Europium labeled streptavidin (Perkin Elmer), the solution is pre-incubated for 15 minutes at room temperature, then 10 nM Cy5-p53 peptide (internal preparation, the Cy5 dye is directly bound to the N-terminal part of p53 peptide construct) is added before an incubation at room temperature for 15 minutes prior to reading the plate. For measurement of samples, a Victor II microplate reader (Perkin Elmer) is used with the following settings: Excitation 340 nm, Emission Donor 620 nm and Emission Acceptor 665 nm. IC50 values are calculated by curve fitting using XLfit. If not specified, reagents are purchased from Sigma-Aldrich Chemie GmBH, Buchs, Switzerland.
(§4) This assay was used to evaluate compounds displaying inhibition of p53-MDM2 interaction and p53-MDM4 interaction at IC50s of 0.005 to 50 μM (p53-MDM2 Assay 1 and p53-MDM4 Assay 1, respectively). For selected compounds displaying IC50s between […] on MDM2, a slightly modified assay is used with the following adaptations: 0.1 nM MDM2, 0.1 nM Europium labeled streptavidin and Tecan genios Pro is used as a microplate reader for the fluorescence measurements (p53-MDM2 Assay 2).
For orientation: TR-FRET usually uses a lanthanide donor and a delayed reading to cut background.

The target in data set [2] is T2, p53-MDM4 interaction (human MDM4 protein, amino acids 2-185) (Homo sapiens, UniProt O15151).
T2 construct: human MDM4 protein (amino acids 2-185); made in house
T2 sequence (O15151 2-185): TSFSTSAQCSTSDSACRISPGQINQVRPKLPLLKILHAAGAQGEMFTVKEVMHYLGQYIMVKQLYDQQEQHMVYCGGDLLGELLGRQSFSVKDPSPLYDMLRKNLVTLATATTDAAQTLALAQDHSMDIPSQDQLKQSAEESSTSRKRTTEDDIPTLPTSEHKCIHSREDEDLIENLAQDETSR
The experiment in a line: p53-MDM4 Assay 1: TR-FRET inhibition of p53-MDM4 interaction. It is filed as binding. The following applies: 2.5 nM MDM4-biotinylated, 10 nM Cy5-p53 peptide. Here is the method:
as §1, §2, §3, §4

The target of data set [3] is T1, p53-MDM2 interaction (human MDM2 protein, amino acids 2-188). As to the kind of experiment: p53-MDM2 Assay 2: slightly modified TR-FRET assay. The following applies: 0.1 nM MDM2, 0.1 nM Europium labeled streptavidin, Tecan genios Pro reader. It is filed as binding. Here is the method: as §1, §2, §3, §4

What is called IC50 is the concentration needed to halve the response being measured. As usually defined, the melting point is the temperature of the solid-liquid transition.

T1 sequence (Q00987 2-188): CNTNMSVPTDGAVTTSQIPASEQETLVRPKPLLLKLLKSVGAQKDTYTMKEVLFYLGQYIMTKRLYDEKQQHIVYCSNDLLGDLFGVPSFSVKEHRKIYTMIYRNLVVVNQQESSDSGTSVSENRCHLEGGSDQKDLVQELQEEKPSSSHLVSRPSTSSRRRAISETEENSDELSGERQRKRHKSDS

In turn, `CC(C)=CCn1nc2c(c1C(C)C)C(c1ccc(Cl)cc1C)N(c1cccc(Cl)c1F)C(=O)N2` (stereo not drawn) [Example 4, 5-(3-chloro-2-fluorophenyl)-4-(4-chloro-2-methylphenyl) -3-isopropyl-2-(3-methylbut-2-en-1-yl)-4,5-dihydro-2H-pyrazolo[3,4-d]pyrimidin-6(7H)-one] gave a melting point of 81 to 83 °C. Further, the IC50 in data set [1] is 3.5 nM. For the same molecule, in data set [2], the IC50 is 78800 nM.
For `COc1ccccc1-n1nc2c(c1C(C)C)C(c1ccc(Cl)cc1C)N(c1cccc(Cl)c1F)C(=O)N2` (stereo not drawn) [Example 5, 5-(3-Chloro-2-fluoro-phenyl)-4-(4-chloro-2-methyl-phenyl)-3-isopropyl-2-(2-methoxy-phenyl)-2,4,5,7-tetrahydro-pyrazolo[3,4-d]pyrimidin-6-one] the same measures were 140 to 143 °C, 1.45 nM and 1710 nM.
On to `COc1ccccc1-n1nc2c(c1C(C)C)[C@H](c1ccc(Cl)cc1C)N(c1cccc(Cl)c1F)C(=O)N2` [Example 6, (S)-5-(3-Chloro-2-fluoro-phenyl)-4-(4-chloro-2-methyl-phenyl)-3-isopropyl-2-(2-methoxy-phenyl)-2,4,5,7-tetrahydro-pyrazolo[3,4-d]pyrimidin-6-one], for which the values for the IC50 in data set [1], in data set [2] and in data set [3] were 0.7 nM, 2760 nM and 0.42 nM, respectively.
The molecule `Cc1cc(Cl)ccc1C1c2c(nn(Cc3ccccn3)c2C(C)C)NC(=O)N1c1cccc(Cl)c1F` (stereo not drawn) [Example 8, 5-(3-Chloro-2-fluoro-phenyl)-4-(4-chloro-2-methyl-phenyl)-3-isopropyl-2-pyridin-2-ylmethyl-2,4,5,7-tetrahydro-pyrazolo[3,4-d]pyrimidin-6-one] displayed a melting point of 150 to 153 °C. For the same molecule, the IC50 in data set [1] was 3.2 nM. Besides, in data set [2], the IC50 was found to be 8200 nM.
Turning to `COc1ccccc1-n1nc2c(c1C(C)C)C(c1ccc(Cl)cc1C)N(c1cc(Cl)ccc1C)C(=O)N2` (stereo not drawn) [Example 10, 4-(4-Chloro-2-methyl-phenyl)-5-(5-chloro-2-methyl-phenyl)-3-isopropyl-2-(2-methoxy-phenyl)-2,4,5,7-tetrahydro-pyrazolo[3,4-d]pyrimidin-6-one], the IC50 in data set [1] was determined as 1.1 nM; in data set [2], 4700 nM; in data set [3] it was 0.21 nM.
Take `Cc1cc(Cl)ccc1C1c2c(nn(Cc3ccccc3)c2C(C)C)NC(=O)N1c1cc(Cl)ccc1C` (stereo not drawn) [Example 11, 2-Benzyl-4-(4-chloro-2-methyl-phenyl)-5-(5-chloro-2-methyl-phenyl)-3-isopropyl-2,4,5,7-tetrahydro-pyrazolo[3,4-d]pyrimidin-6-one]: the melting point is 105 to 107 °C. In data set [1], the IC50 worked out at 3.5 nM.
Turning to `COc1ccccc1-n1nc2c(c1C(C)C)C(c1ccc(Cl)cc1)N(c1cc(Cl)c(=O)n(C)c1)C(=O)N2` (stereo not drawn) [Example 13, 5-(5-Chloro-1-methyl-6-oxo-1,6-dihydro-pyridin-3-yl)-4-(4-chloro-phenyl)-3-isopropyl-2-(2-methoxy-phenyl)-2,4,5,7-tetrahydro-pyrazolo[3,4-d]pyrimidin-6-one], the IC50 is 1.6 nM in data set [1], 2180 nM in data set [2] and 0.25 nM in data set [3].
Take `CCn1cc(N2C(=O)Nc3nn(-c4ccccc4OC)c(C(C)C)c3C2c2ccc(Cl)cc2)cc(Cl)c1=O` (stereo not drawn) [Example 14, 5-(5-Chloro-1-ethyl-6-oxo-1,6-dihydro-pyridin-3-yl)-4-(4-chloro-phenyl)-3-isopropyl-2-(2-methoxy-phenyl)-2,4,5,7-tetrahydro-pyrazolo[3,4-d]pyrimidin-6-one]: the IC50 in data set [1] came out at 1.5 nM; in data set [2] it was 1480 nM; in data set [3], 0.33 nM.
For `COc1ccccc1-n1nc2c(c1C(C)C)C(c1ccc(Cl)cc1C)N(c1cc(Cl)c(=O)n(C)c1)C(=O)N2` (stereo not drawn) [Example 15, 5-(5-Chloro-1-methyl-6-oxo-1,6-dihydro-pyridin-3-yl)-4-(4-chloro-2-methyl-phenyl)-3-isopropyl-2-(2-methoxy-phenyl)-2,4,5,7-tetrahydro-pyrazolo[3,4-d]pyrimidin-6-one] the same measures were 1.45 nM, 1550 nM and 0.18 nM.
On the same counts, the results for `COc1ccccc1-n1nc2c(c1C(C)C)C(c1ccc(Cl)cc1)N(c1cc(Cl)c(=O)n(CCO)c1)C(=O)N2` (stereo not drawn) [Example 18, 5-[5-Chloro-1-(2-hydroxy-ethyl)-6-oxo-1,6-dihydro-pyridin-3-yl]-4-(4-chloro-phenyl)-3-isopropyl-2-(2-methoxy-phenyl)-2,4,5,7-tetrahydro-pyrazolo[3,4-d]pyrimidin-6-one] are 1.6 nM, 2370 nM and 0.56 nM.
`COCCn1cc(N2C(=O)Nc3nn(-c4ccccc4OC)c(C(C)C)c3C2c2ccc(Cl)cc2C)cc(Cl)c1=O` (stereo not drawn) [Example 19, 5-[5-Chloro-1-(2-methoxy-ethyl)-6-oxo-1,6-dihydro-pyridin-3-yl]-4-(4-chloro-2-methyl-phenyl)-3-isopropyl-2-(2-methoxy-phenyl)-2,4,5,7-tetrahydro-pyrazolo[3,4-d]pyrimidin-6-one]: the IC50 is 1.3 nM in data set [1], 1350 nM in data set [2] and 0.17 nM in data set [3].
On the same counts, the results for `CCn1cc(N2C(=O)Nc3nn(-c4ccccc4OC)c(C(C)C)c3C2c2ccc(Cl)cc2C)cc(Cl)c1=O` (stereo not drawn) [Example 21, 5-(5-Chloro-1-ethyl-6-oxo-1,6-dihydropyridin-3-yl)-4-(4-chloro-2-methylphenyl)-3-isopropyl-2-(2-methoxyphenyl)-4,5-dihydro-2H -pyrazolo[3,4-d]pyrimidin-6(7H)-one] are 1.4 nM, 1630 nM and 0.19 nM.
For `COc1ccccc1-n1nc2c(c1C(C)C)C(c1ccc(Cl)cc1)N(c1cc(Cl)c(=O)n(CCN(C)C)c1)C(=O)N2` (stereo not drawn) [Example 22, 5-[5-Chloro-1-(2-dimethylamino-ethyl)-6-oxo-1,6-dihydro-pyridin-3-yl]-4-(4-chloro-phenyl)-3-isopropyl-2-(2-methoxy-phenyl)-2,4,5,7-tetrahydro-pyrazolo[3,4-d]pyrimidin-6-one] the same measures were 2.7 nM, 6230 nM and 1.43 nM.
For the molecule `COc1ncc(-n2nc3c(c2C(C)C)C(c2ccc(Cl)cc2C)N(c2cc(Cl)cn(C)c2=O)C(=O)N3)c(OC)n1` (stereo not drawn) [Example 32, 5-(5-Chloro-1-methyl-2-oxo-1,2-dihydropyridin-3-yl)-4-(4-chloro-2-methylphenyl)-2-(2,4-dimethoxypyrimidin-5-yl)-3-isopropyl-4,5-dihydro-2H-pyrazolo[3,4-d]pyrimidin-6(7H)-one], the IC50 in data set [3] was found to be 0.21 nM.

The values are drawn from patent US9556180B2, “Pyrazolo[3,4-d]pyrimidinone compounds as inhibitors of the P53/MDM2 interaction” (Novartis AG, priority 2013, dated 2017).
